Test [1] concerns mixed culture of nerve cells-glial cells. Briefly: Protecting effect on NMDA-induced nerve cell death (LDH release). Format: cell-based, ICR mouse. The settings on record: 100 μM NMDA, LDH release after 24 hours. Here is the method: Isolation and culture of nerve cells were performed by Choi's method (Choi, D. W. 1985, Neurosci. Lett., 58: 293-297). That is, the cortex was isolated in fetus ICR mouse that was 14 days pregnant, and then single cells were obtained from the tissue using pipette. The cells were aliquoted into 2×10^5/well density in a 24-well plate (Falcon) in which glial cells of cerebral cortex had been cultured in an incubator maintained at 37° C. with 5% CO2 for over 3 weeks. The culture medium was supplemented with MEM (minimum essential medium, Sigma), 2 mM glutamine, 21 mM glucose, 26.5 mM bicarbonate, 10% fetal bovine serum (FBS). In 3-5 days after aliquot, 10 μM Ara-C (cytosine arabinoside) was treated to suppress proliferation of neuroglia. And it was treated with 100 μM NMDA and 1 μg/mL or 2 μg/mL of each sample (compound) to induce the death of nerve cells due to excitable toxicity for 20 minutes, in 12-15 days after aliquot. Because of nerve cell death, lactate dehydrogenase (LDH) accumulated in proportion to the number of dead cells. In 24 hours after drug treatment, the amount of dehydrogenase (LDH) released to outside of cells was measured by using an […] measurement kit (CytoTox 96, Promega). After the reaction was completed, the change of absorbance depending on the amount of LDH was measured by using a microplate spectrophotometer.

Test [2] concerns pentylentetrazole (PTZ)-induced convulsion. Briefly: Anti-convulsant effect, pentylentetrazole (PTZ) test. The settings on record: 10 mg/kg intraperitoneally, PTZ 80 mg/kg subcutaneously; for mortality rate / Induction percentage of convulsion: (animals/total); for mortality rate: negative control 70(17/23); for Induction percentage of convulsion: negative control 100(23/23); for Initiation time of convulsion: negative control 5.0 ± 0.7; for Duration of convulsion: negative control 46.7 ± 3.3. Format: in vivo. Here is the method: An experiment was performed by the method of Ali et al. (Ali, A. et al. 2006, Pharmacological Reports, 58: 242-245). A 10 mg/kg dose of compound was intraperitoneally administered to identify the anti-convulsant effect and the effect was observed (Table 8). Researching the process of activity was performed by the Anti-epileptic Drug Development Program (ADD) of NIH during development of the anti-convulsant drug. One of the assessed items of anti-convulsant activity in the first step of this program is the pentylentetrazole (PTZ) test. […] After 10 mg/kg of the testing drug was administered, assessment was performed by estimating the initiation time of convulsion, duration until convulsion completely disappeared and mortality rate. It was assessed as having an anti-convulsant effect when a single episode of clonic spasm was not shown over 5 seconds on at least one of the 4 laboratory animals after PTZ administration.

The next test has as its system thoracic aorta of rats. The experiment in a line: Relaxing effect on thoracic aorta contracted by phenylephrine (organ bath). Further details: species or system rats of SD species. Particulars: 67 μg/mL, phenylephrine 0.5 μM, mean n = 3; for inhibition at 67 µg/mL: Rattus norvegicus, read-out: Relaxation percentage. The text has this:
After male rats of SD species (250-300 g) were anesthetized by inhalation of ether, their thoracic aortas were extracted and put into a Krebs buffer (mM; NaCl 118, NaHCO3 27.3, KCl 4.8, MgSO4 1.2, KH2PO4 1.0, CaCl2 1.25, glucose 11.1). 2 mm of aortic ring was made under dissecting microscope and cultured in an organ bath to measure the tension of blood vessels. The organ bath was filled with Krebs buffer and saturated with 95% O2, 5% CO2 to maintain dissolved oxygen and physiological pH. Changing of tension was measured by a tension meter (Hugo-sachs, model K30) and recorded by physiological recorder (Coulbourn polygraph). The length of the blood vessels was increased step by step to make 1.0 g of basal tension for 90 minutes. The equilibrated blood vessel was contracted by phenylephrine (0.5 μM). When the contraction furrow reached equilibrium, compounds were added, followed by observation of relaxation response.

The test system of test [3] is middle cerebral artery occlusion (MCAO) model. Briefly: Anti-stroke effect in MCAO model, intravenous administration around reperfusion. Format: in vivo, rats of SD species. The settings on record: for Inhibitory percentage compared to negative control / Infarcted volume (Mean ± standard deviation): 1 mg/kg iv; for Infarcted volume (Mean ± standard deviation): negative control 0.43 ± 0.02. Here is the method: Male rats of SD species with 290-300 g of body weight were used as laboratory animals, and 8 rats were used in each experiment group. The operation was performed by using the method of Nagasawa et al. (Nagasawa, H. and Gogure, K. 1989, Stroke, 20: 1037-1043).
The rats were anesthetized by Ketamine, and the operation was performed as body temperature was maintained using thermoplate. The cerebral region was incised following the median line of the neck, and the left common carotid artery, internal carotid artery and external carotid artery were separated, taking care not to damage the vagus nerve. The common carotid artery and external carotid artery were ligatured, and a probe was inserted into the internal carotid artery from the branch point of the internal and external carotid arteries. And then the fundus of the middle cerebral artery was occluded by ligature just on the upper side of the insertion region. A probe was made by heating the end of a 4-0 nylon surgical suture (Dafilon, B. Braun, Germany) and cut into 30 mm. The 7-9 mm end of the probe was coated with the mixture of silcon (Xantopren VL plus, Heraeus Kulzer, Germany) and curing agent (Optosyl-Xantopren VL plus, Heraeus Kulzer, Germany), and the thickness was to be 0.3-0.4 mm. After the intervention of the probe insertion and the animals came out of the anesthetic, individuals in which neurological deficit symptom (right direction circling) was observed were included in the ischemia group.
After 3 hours of ischemia, the inserted probe was removed to reperfuse blood circulation. The brain was extracted after 24 hours, followed by histological staining.
The compound 3 was administered at a programmed time before or after insertion of the probe with oral or intravenous administration. TTC (2,3,5-triphenyltetrazolium chloride) staining was performed to estimate the damage of brain tissue by ischemia. Procephalon of the extracted brain was sliced into 2 mm of sequential slice by using brain matrix (ASI instrument, Warren, Mich., USA). The slices were put into 2% of TTC solution and incubated at 37° C. for 60 minutes for staining. The TTC stained brain slice was fixed in 10% of formalin buffer and the front of the each slice was photographed with a digital camera. The infarcted areas (cm^2) that were not stained with deep red in each acquired image were measured using an image analyzer, and total infarcted volume (cm^3) was calculated by multiplying the thickness of the slices
In the experiment, the probe was removed after stoke induction so that circulation was reperfused.

The mark [4] stands for this setting: treatment time 0.5 after reperfusion.
[5] abbreviates: treatment time 1 after reperfusion.
[6] abbreviates: treatment time 2 after reperfusion.
Where [7] appears, read: treatment time 4 after reperfusion.
[8] abbreviates: treatment time 6 after reperfusion.
[9] abbreviates: treatment time 12 after reperfusion.
The mark [10] stands for this setting: treatment time 18 after reperfusion.
Where [11] appears, read: treatment time 24 after reperfusion.
Where [12] appears, read: treatment time −0.5 after reperfusion.

For `O=c1[nH]c2ccccc2c(=O)n1CCCNCCCCN(CCCn1c(=O)[nH]c2ccccc2c1=O)Cc1ccccc1` [Compound 9, 3-{3-[4-({N-[3-(2,4-dioxo-1,4-dihydro-2H-quinazolin-3-yl)propyl]-N-benzyl}amino)butylamino]propyl}-1H-quinazoline-2,4-dione], the “Inhibitory effect of cell death by NMDA-induced excitable neurotoxicity” value (from here on “Inhibitory effect of cell death”) in test [1] (1 μg/ml compound) stood at 21.4%. The “Inhibitory effect of cell death” value in test [1] (2 μg/ml compound) is on record as 33.3%. Moreover, in test [2], the mortality rate is reported as 67(4/6) %, the “Induction percentage of convulsion” value is on record as 100(6/6) %, the “Initiation time of convulsion” value is given as 4.4 ± 0.7 min and the Duration of convulsion came to 39.8 ± 10.3 min. Further, the Relaxation percentage in the test on thoracic aorta of rats was 95.5%.

`O=C(c1ccccc1)N(CCCCNCCCn1c(=O)[nH]c2ccccc2c1=O)CCCn1c(=O)[nH]c2ccccc2c1=O` [Compound 10, N-[3-(2,4-dioxo-1,4-dihydro-2H-quinazolin-3-yl)propyl]-N-{4-[3-(2,4-dioxo-1,4-dihydro-2H-quinazolin-3-yl)propylamino]butyl}benzamide]: the “Inhibitory effect of cell death” value in test [1] (1 μg/ml compound) was found to be 15.4%. Also, the “Inhibitory effect of cell death” value in test [1] (2 μg/ml compound) came out at 13.7%. In test [2], the mortality rate is reported as 17(1/6) %, the “Induction percentage of convulsion” value is given as 100(6/6) %, the “Initiation time of convulsion” value was 5.8 ± 1.4 min and the Duration of convulsion is on record as 49.9 ± 5.4 min. Further, in the test with thoracic aorta of rats, the inhibition at 67 µg/mL turned out to be 4.9%.

Turning to `CS(=O)(=O)N(CCCCN(CCCn1c(=O)[nH]c2ccccc2c1=O)S(C)(=O)=O)CCCn1c(=O)[nH]c2ccccc2c1=O` [Compound 18, N-[3-(2,4-dioxo-1,4-dihydro-2H-quinazolin-3-yl)propyl]-N-(4-{[3-(2,4-dioxo-1,4-dihydro-2H-quinazolin-3-yl)propyl]methansulfonylamino}butyl)methansulfonamide], the “Inhibitory effect of cell death” value in test [1] (1 μg/ml compound) is on record as 44.4%. For the same compound, the “Inhibitory effect of cell death” value in test [1] (2 μg/ml compound) is reported as 21.0%. Also, in test [2], the mortality rate is reported as 0(0/6) %, the “Induction percentage of convulsion” value is recorded as 83(5/6) %, the “Initiation time of convulsion” value is listed as 19.1 ± 8.4 min and the Duration of convulsion is listed as 5.2 ± 3.4 min. Besides, the inhibition at 67 µg/mL with thoracic aorta of rats worked out at 42.4%.

Take `CC(=O)N(CCCCNCCCn1c(=O)[nH]c2ccccc2c1=O)CCCNC(=O)c1ccc(O)cc1` [Compound 19, N-[3-(acetyl-{4-[3-(2,4-dioxo-1,4-dihydro-2H-quinazolin-3-yl)propylamino]butyl}amino)propyl]-4-hydroxybenzamide]: the “Inhibitory effect of cell death” value in test [1] (1 μg/ml compound) is recorded as 40.1%. Further, in test [1] (2 μg/ml compound), the “Inhibitory effect of cell death” value is 45.2%. In addition, in test [2], the mortality rate was 0(0/6) %, the “Induction percentage of convulsion” value is given as 50(3/6) %, the “Initiation time of convulsion” value is 38.7 ± 1.5 min and the Duration of convulsion is given as 1.8 ± 2.7 min. Also, the inhibition at 67 µg/mL in the test with thoracic aorta of rats was 11.8%.

With `CN1C(=O)CN=C(c2ccccc2)c2cc(Cl)ccc21` [Diazepam, reference compound], in test [2], the mortality rate is reported as 0(0/6) % and the “Induction percentage of convulsion” value is reported as 0(0/6) %.

As for `C[C@]12N[C@H](Cc3ccccc31)c1ccccc12` [MK-801], the “Inhibitory percentage compared to negative control” value in test [3] (setting [4]) is reported as 50.2%; in test [3] (setting [5]), 27.0%; in test [3] (setting [6]) it was 22.8%; in test [3] (setting [7]), 34.4%; in test [3] (setting [8]) it was 13.3%; in test [3] (setting [9]) it was 8.7%. Besides, the “Inhibitory percentage compared to negative control” value in test [3] (setting [10]) came to 7.4%; in test [3] (setting [11]), 8.8%; in test [3] (setting [12]), 55.4%. Further, the “Infarcted volume (Mean ± standard deviation)” value worked out at 0.21 ± 0.04 cm^3 in test [3] (setting [4]); 0.31 ± 0.02 cm^3 in test [3] (setting [5]); 0.33 ± 0.02 cm^3 in test [3] (setting [6]); 0.28 ± 0.08 cm^3 in test [3] (setting [7]); 0.37 ± 0.06 cm^3 in test [3] (setting [8]); 0.39 ± 0.06 cm^3 in test [3] (setting [9]). In addition, the entries for the “Infarcted volume (Mean ± standard deviation)” value in test [3] (setting [10]), in test [3] (setting [11]) and in test [3] (setting [12]) were 0.40 ± 0.08 cm^3, 0.39 ± 0.05 cm^3 and 0.19 ± 0.06 cm^3, respectively. In test [3] (positive control, iv), the “Treatment time after reperfusion giving the maximum effect” value came to 30 min. Moreover, the results for the “Inhibitory effect of cell death” value in test [1] (1 μg/ml compound) and in test [1] (2 μg/ml compound) were 49.0% and 63.6%, respectively.

The values are drawn from patent US8404696B2, “Quinazoline-2,4-dione derivative, and medical compositions for the prophylaxis and treatment of cranial nerve disease containing the same” (Shin Poong Pharmaceutical Co., Ltd., priority 2008, dated 2013).
